Reference: the supplement of paper PMC10307832

Experiments:
Experiment in all cases: relative viability (nuclei count vs DMSO), 5 days (fraction); higher = more cells survive
LK-2 = test system: LK-2
Procedure, shortened: (§1)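 Lung cancer cell lines in 1536-well plates were dosed by pin tool the day after seeding, either with one drug alone or with a fixed anchor-drug dose plus five library-drug doses (not always all listed) in √10 steps. After 5 days, cells were fixed and their nuclei stained in one step (final 0.05% Triton X-100, 1% formaldehyde, 1 ug/ml Hoechst), then counted on 4× images. Relative viability is the nuclei count in treated wells divided by that in vehicle wells. Values are medians of duplicate plates.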

NCI-H1648 = test system: NCI-H1648
Procedure, shortened: as §1

A-427 = test system: A-427
Procedure, shortened: as §1

NCI-H1650 = test system: NCI-H1650
Procedure, shortened: as §1

CAL-12T = test system: CAL-12T
Procedure, shortened: as §1

NCI-H1623 = test system: NCI-H1623
Procedure, shortened: as §1

UMC-11 = test system: UMC-11
Procedure, shortened: as §1

NCI-H2009 = test system: NCI-H2009
Procedure, shortened: as §1

NCI-H1734 = test system: NCI-H1734
Procedure, shortened: as §1

`CC(=O)O[C@@]12CO[C@@H]1C[C@H](O)[C@@]1(C)C(=O)[C@H](O)C3=C(C)[C@@H](OC(=O)[C@H](O)[C@@H](NC(=O)OC(C)(C)C)c4ccccc4)C[C@@](O)([C@@H](OC(=O)c4ccccc4)[C@H]21)C3(C)C` [Docetaxel] + Cc1cc(Nc2cc(N3CCN(C)CC3)nc(Sc3ccc(NC(=O)C4CC4)cc3)n2)n[nH]1 [Tozasertib] (partner 0.1 µM) gave a relative viability (LK-2; first compound 0.0002 µM) of 0.155, a relative viability (LK-2; first compound 0.000632 µM) of 0.215 and a relative viability (LK-2; first compound 0.002 µM) of 0.157. The relative viability (LK-2; first compound 0.006325 µM) was 0.188, the relative viability (LK-2; first compound 0.02 µM) was 0.166 and the relative viability (NCI-H1648; first compound 0.0002 µM) was 0.449. For the same compound, the relative viability (NCI-H1648; first compound 0.000632 µM) was 0.509, the relative viability (NCI-H1648; first compound 0.002 µM) was 0.28 and the relative viability (NCI-H1648; first compound 0.006325 µM) was 0.195. For the same compound, the relative viability (NCI-H1648; first compound 0.02 µM) was 0.155, the relative viability (A-427; first compound 0.0002 µM) was 0.176 and the relative viability (A-427; first compound 0.000632 µM) was 0.237. For the same compound, the relative viability (A-427; first compound 0.002 µM) was 0.193, the relative viability (A-427; first compound 0.006325 µM) was 0.162 and the relative viability (A-427; first compound 0.02 µM) was 0.132. The relative viability (NCI-H1650; first compound 0.0002 µM) was 0.386, the relative viability (NCI-H1650; first compound 0.000632 µM) was 0.328 and the relative viability (NCI-H1650; first compound 0.006325 µM) was 0.306. For the same compound, the relative viability (NCI-H1650; first compound 0.02 µM) was 0.168, the relative viability (CAL-12T; first compound 0.0002 µM) was 0.319 and the relative viability (CAL-12T; first compound 0.000632 µM) was 0.32. The relative viability (CAL-12T; first compound 0.002 µM) was 0.227, the relative viability (CAL-12T; first compound 0.006325 µM) was 0.251 and the relative viability (CAL-12T; first compound 0.02 µM) was 0.142. For the same compound, the relative viability (NCI-H1623; first compound 0.0002 µM) was 0.453, the relative viability (NCI-H1623; first compound 0.000632 µM) was 0.367 and the relative viability (NCI-H1623; first compound 0.002 µM) was 0.409. It also gave a relative viability (NCI-H1623; first compound 0.006325 µM) of 0.42, a relative viability (NCI-H1623; first compound 0.02 µM) of 0.377 and a relative viability (UMC-11; first compound 0.0002 µM) of 0.193. It also gave a relative viability (UMC-11; first compound 0.000632 µM) of 0.193, a relative viability (UMC-11; first compound 0.002 µM) of 0.218 and a relative viability (UMC-11; first compound 0.006325 µM) of 0.227. It also gave a relative viability (UMC-11; first compound 0.02 µM) of 0.217, a relative viability (NCI-H2009; first compound 0.0002 µM) of 0.626 and a relative viability (NCI-H2009; first compound 0.000632 µM) of 0.747. For the same compound, the relative viability (NCI-H2009; first compound 0.002 µM) was 0.682, the relative viability (NCI-H2009; first compound 0.006325 µM) was 0.553 and the relative viability (NCI-H2009; first compound 0.02 µM) was 0.302. It also gave a relative viability (NCI-H1734; first compound 0.0002 µM) of 0.308, a relative viability (NCI-H1734; first compound 0.000632 µM) of 0.345 and a relative viability (NCI-H1734; first compound 0.002 µM) of 0.302. It also gave a relative viability (NCI-H1734; first compound 0.006325 µM) of 0.341 and a relative viability (NCI-H1734; first compound 0.02 µM) of 0.292.

Work on `Nc1ccn([C@@H]2O[C@H](CO)[C@@H](O)[C@@H]2O)c(=O)n1` [Cytarabine] + Cc1cc(Nc2cc(N3CCN(C)CC3)nc(Sc3ccc(NC(=O)C4CC4)cc3)n2)n[nH]1 [Tozasertib] (partner 0.1 µM) yielded a relative viability (LK-2; first compound 0.005 µM) of 0.213, a relative viability (LK-2; first compound 0.01581 µM) of 0.185 and a relative viability (LK-2; first compound 0.05 µM) of 0.168. For the same compound, the relative viability (LK-2; first compound 0.1581 µM) was 0.157, the relative viability (LK-2; first compound 0.5 µM) was 0.215 and the relative viability (NCI-H1648; first compound 0.005 µM) was 0.456. It also gave a relative viability (NCI-H1648; first compound 0.01581 µM) of 0.517, a relative viability (NCI-H1648; first compound 0.05 µM) of 0.484 and a relative viability (NCI-H1648; first compound 0.1581 µM) of 0.265. For the same compound, the relative viability (NCI-H1648; first compound 0.5 µM) was 0.32, the relative viability (A-427; first compound 0.005 µM) was 0.232 and the relative viability (A-427; first compound 0.01581 µM) was 0.212. The relative viability (A-427; first compound 0.05 µM) was 0.163, the relative viability (A-427; first compound 0.1581 µM) was 0.161 and the relative viability (A-427; first compound 0.5 µM) was 0.149. For the same compound, the relative viability (NCI-H1650; first compound 0.005 µM) was 0.294, the relative viability (NCI-H1650; first compound 0.01581 µM) was 0.33 and the relative viability (NCI-H1650; first compound 0.05 µM) was 0.303. For the same compound, the relative viability (NCI-H1650; first compound 0.1581 µM) was 0.26, the relative viability (NCI-H1650; first compound 0.5 µM) was 0.213 and the relative viability (CAL-12T; first compound 0.005 µM) was 0.249. The relative viability (CAL-12T; first compound 0.01581 µM) was 0.323, the relative viability (CAL-12T; first compound 0.05 µM) was 0.27 and the relative viability (CAL-12T; first compound 0.1581 µM) was 0.303. It also gave a relative viability (CAL-12T; first compound 0.5 µM) of 0.2, a relative viability (NCI-H1623; first compound 0.005 µM) of 0.325 and a relative viability (NCI-H1623; first compound 0.01581 µM) of 0.264. The relative viability (NCI-H1623; first compound 0.05 µM) was 0.284, the relative viability (NCI-H1623; first compound 0.1581 µM) was 0.199 and the relative viability (NCI-H1623; first compound 0.5 µM) was 0.178. The relative viability (UMC-11; first compound 0.005 µM) was 0.261, the relative viability (UMC-11; first compound 0.01581 µM) was 0.219 and the relative viability (UMC-11; first compound 0.05 µM) was 0.222. The relative viability (UMC-11; first compound 0.1581 µM) was 0.231, the relative viability (UMC-11; first compound 0.5 µM) was 0.2 and the relative viability (NCI-H2009; first compound 0.005 µM) was 0.685. For the same compound, the relative viability (NCI-H2009; first compound 0.01581 µM) was 0.795, the relative viability (NCI-H2009; first compound 0.05 µM) was 0.786 and the relative viability (NCI-H2009; first compound 0.1581 µM) was 0.566. For the same compound, the relative viability (NCI-H2009; first compound 0.5 µM) was 0.308, the relative viability (NCI-H1734; first compound 0.005 µM) was 0.245 and the relative viability (NCI-H1734; first compound 0.01581 µM) was 0.232. For the same compound, the relative viability (NCI-H1734; first compound 0.05 µM) was 0.178, the relative viability (NCI-H1734; first compound 0.1581 µM) was 0.117 and the relative viability (NCI-H1734; first compound 0.5 µM) was 0.112.

Work on `Cc1sc2c(c1C)C(c1ccc(Cl)cc1)=N[C@@H](CC(=O)OC(C)(C)C)c1nnc(C)n1-2` [JQ1] + Cc1cc(Nc2cc(N3CCN(C)CC3)nc(Sc3ccc(NC(=O)C4CC4)cc3)n2)n[nH]1 [Tozasertib] (partner 0.1 µM) yielded a relative viability (LK-2; first compound 0.04 µM) of 0.18, a relative viability (LK-2; first compound 0.1265 µM) of 0.192 and a relative viability (LK-2; first compound 0.4 µM) of 0.195. It also gave a relative viability (LK-2; first compound 1.265 µM) of 0.151, a relative viability (LK-2; first compound 4 µM) of 0.166 and a relative viability (NCI-H1648; first compound 0.04 µM) of 0.495. For the same compound, the relative viability (NCI-H1648; first compound 0.1265 µM) was 0.516, the relative viability (NCI-H1648; first compound 0.4 µM) was 0.243 and the relative viability (NCI-H1648; first compound 1.265 µM) was 0.153. For the same compound, the relative viability (NCI-H1648; first compound 4 µM) was 0.137, the relative viability (A-427; first compound 0.04 µM) was 0.195 and the relative viability (A-427; first compound 0.1265 µM) was 0.188. The relative viability (A-427; first compound 0.4 µM) was 0.173, the relative viability (A-427; first compound 1.265 µM) was 0.131 and the relative viability (A-427; first compound 4 µM) was 0.125. It also gave a relative viability (NCI-H1650; first compound 0.04 µM) of 0.355, a relative viability (NCI-H1650; first compound 0.1265 µM) of 0.289 and a relative viability (NCI-H1650; first compound 0.4 µM) of 0.284. For the same compound, the relative viability (NCI-H1650; first compound 1.265 µM) was 0.124, the relative viability (NCI-H1650; first compound 4 µM) was 0.135 and the relative viability (CAL-12T; first compound 0.04 µM) was 0.274. For the same compound, the relative viability (CAL-12T; first compound 0.1265 µM) was 0.238, the relative viability (CAL-12T; first compound 0.4 µM) was 0.24 and the relative viability (CAL-12T; first compound 1.265 µM) was 0.132. The relative viability (CAL-12T; first compound 4 µM) was 0.122, the relative viability (NCI-H1623; first compound 0.04 µM) was 0.493 and the relative viability (NCI-H1623; first compound 0.1265 µM) was 0.367. It also gave a relative viability (NCI-H1623; first compound 0.4 µM) of 0.404, a relative viability (NCI-H1623; first compound 1.265 µM) of 0.375 and a relative viability (NCI-H1623; first compound 4 µM) of 0.335. For the same compound, the relative viability (UMC-11; first compound 0.04 µM) was 0.214, the relative viability (UMC-11; first compound 0.1265 µM) was 0.192 and the relative viability (UMC-11; first compound 0.4 µM) was 0.173. The relative viability (UMC-11; first compound 1.265 µM) was 0.175, the relative viability (UMC-11; first compound 4 µM) was 0.162 and the relative viability (NCI-H2009; first compound 0.04 µM) was 0.697. For the same compound, the relative viability (NCI-H2009; first compound 0.1265 µM) was 0.414, the relative viability (NCI-H2009; first compound 0.4 µM) was 0.385 and the relative viability (NCI-H2009; first compound 1.265 µM) was 0.199. The relative viability (NCI-H2009; first compound 4 µM) was 0.187, the relative viability (NCI-H1734; first compound 0.04 µM) was 0.259 and the relative viability (NCI-H1734; first compound 0.1265 µM) was 0.209. The relative viability (NCI-H1734; first compound 0.4 µM) was 0.215, the relative viability (NCI-H1734; first compound 1.265 µM) was 0.204 and the relative viability (NCI-H1734; first compound 4 µM) was 0.212.
